Assay results taken from ChEMBL document CHEMBL1201862, “PubChem BioAssay data set” (2004).
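A five-concentration, 48-hour dose response in 96-well plates underlies each endpoint, interpolated linearly between surrounding concentrations. GI50 marks 50% less growth.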 Active and inactive are the calls of the source. Rule as the data show it: active = GI50 up to about 1.1 µM and inactive = higher.

Key:
Assay in all cases: inhibition of tumour cell growth, NCI panel, 48 h
ACHN = tested on: ACHN
HOP-62 = tested on: HOP-62
EKVX = tested on: EKVX
RPMI-8226 = tested on: RPMI-8226
COLO 205 = tested on: COLO 205
HCT-15 = tested on: HCT-15
OVCAR-8 = tested on: OVCAR-8
A549 = tested on: A549
UO-31 = tested on: UO-31
SN12C = tested on: SN12C
SF-539 = tested on: SF-539
CCRF-CEM = tested on: CCRF-CEM
NCI-H522 = tested on: NCI-H522
K562 = tested on: K562
NCI-H460 = tested on: NCI-H460
CAKI-1 = tested on: CAKI-1

| SMILES | GI50 (ACHN) | GI50 (HOP-62) | GI50 (EKVX) | GI50 (RPMI-8226) | GI50 (COLO 205) | GI50 (HCT-15) [µM] | GI50 (OVCAR-8) | GI50 (A549) | GI50 (UO-31) | GI50 (SN12C) | GI50 (SF-539) | GI50 (CCRF-CEM) | GI50 (NCI-H522) | GI50 (K562) | GI50 (NCI-H460) | GI50 (CAKI-1) |
| --- | --- | --- | --- | --- | --- | --- | --- | --- | --- | --- | --- | --- | --- | --- | --- | --- |
| Cc1ccc(-c2cc(-c3ccccc3)c(C#N)c(=O)[nH]2)cc1 | > 100 µM (inactive) | > 100 µM (inactive) | > 100 µM (inactive) | > 100 µM (inactive) | > 100 µM (inactive) | > 100 | > 100 µM (inactive) | > 100 µM (inactive) | > 100 µM (inactive) | > 100 µM (inactive) | > 100 µM (inactive) | > 100 µM (inactive) | > 100 µM (inactive) | > 100 µM (inactive) | > 100 µM (inactive) |  |
| Cc1ccc(S(=O)(=O)OC(c2ccc(Cl)cc2Cl)C2OC(=O)c3ccccc32)cc1 (stereo unspecified) | > 100 µM (inactive) | > 100 µM (inactive) | > 100 µM (inactive) | 36.7 µM (inactive) | 83.2 µM (inactive) | 56.5 | > 100 µM (inactive) | 68.5 µM (inactive) | 27.4 µM (inactive) | > 100 µM (inactive) | 73.6 µM (inactive) | 34.8 µM (inactive) | 57.9 µM (inactive) | 33.6 µM (inactive) | 35.8 µM (inactive) |  |
| Cn1cccc1/C=C/c1cc(Br)c(/C=C/c2cccn2C)cc1Br | 10.2 µM (inactive) |  | 11.1 µM (inactive) | 15.2 µM (inactive) | 13.2 µM (inactive) | 8.75 | > 10 µM (inactive) | 11.9 µM (inactive) | 15.2 µM (inactive) | 21 µM (inactive) | 14.6 µM (inactive) | 15.2 µM (inactive) | 14.5 µM (inactive) | 16.7 µM (inactive) | 17.9 µM (inactive) | 15.3 µM (inactive) |
| N#CCc1c(-c2ccccc2)n(S(=O)(=O)c2ccccc2)c2ccccc12 | > 100 µM (inactive) | 36.1 µM (inactive) |  | 31.2 µM (inactive) | > 100 µM (inactive) | 82.8 | > 100 µM (inactive) | > 100 µM (inactive) | 14.8 µM (inactive) |  | > 100 µM (inactive) | > 100 µM (inactive) | > 10 µM (inactive) | 46.9 µM (inactive) | > 100 µM (inactive) | > 100 µM (inactive) |
| Cc1cc2c(cc1C)[n+]([O-])c(C(=O)C/C(=N/OCCCc1ccccc1)C(=O)Nc1cc(Cl)ccc1Cl)c(C)[n+]2[O-] | > 100 µM (inactive) | > 100 µM (inactive) | > 100 µM (inactive) |  | > 100 µM (inactive) | > 100 | > 100 µM (inactive) | > 100 µM (inactive) |  | > 100 µM (inactive) | > 100 µM (inactive) | 33.3 µM (inactive) | > 100 µM (inactive) | > 100 µM (inactive) | > 100 µM (inactive) | > 100 µM (inactive) |
| NNC(=S)N/N=C/C(Cl)=C(\Cl)C(=O)O | > 100 µM (inactive) |  | > 100 µM (inactive) | > 100 µM (inactive) |  | > 100 | > 100 µM (inactive) | > 100 µM (inactive) | > 100 µM (inactive) | > 100 µM (inactive) | > 100 µM (inactive) | > 100 µM (inactive) | 0.228 µM (active) | > 100 µM (inactive) | > 100 µM (inactive) | > 100 µM (inactive) |
| C/C(CC(=O)Nc1ccc(C)cc1)=N\NC(N)=S | 79.4 µM (inactive) | > 100 µM (inactive) | > 100 µM (inactive) | > 100 µM (inactive) | > 100 µM (inactive) |  | > 100 µM (inactive) | > 100 µM (inactive) | > 100 µM (inactive) |  | > 100 µM (inactive) | > 100 µM (inactive) | 94 µM (inactive) | 64.4 µM (inactive) | > 100 µM (inactive) |  |
| CC(=O)OCCOCn1c2ccccc2c2c3c(c4c5ccccc5n(COCCOC(C)=O)c4c21)C(=O)N(Cc1ccccc1)C3=O | > 100 µM (inactive) | > 100 µM (inactive) | > 100 µM (inactive) | > 100 µM (inactive) | > 100 µM (inactive) | > 100 | > 100 µM (inactive) | > 100 µM (inactive) | > 100 µM (inactive) | > 100 µM (inactive) | > 100 µM (inactive) | > 100 µM (inactive) |  | > 100 µM (inactive) | > 100 µM (inactive) |  |
| Cc1cn(C2C=CC(=O)C(C)O2)c(=O)[nH]c1=O (stereo unspecified) | 17.5 µM (inactive) | 20.6 µM (inactive) |  | 20.5 µM (inactive) | 17.5 µM (inactive) |  | 18.6 µM (inactive) | 39 µM (inactive) | 14.5 µM (inactive) | 15.9 µM (inactive) | 18.7 µM (inactive) | 6.07 µM (inactive) | 16.6 µM (inactive) | 10.6 µM (inactive) | 17.9 µM (inactive) | 16.7 µM (inactive) |
| O=C1CC(c2c(-c3ccccc3)[nH]c3ccccc23)C(=O)N1c1ccccc1 (stereo unspecified) | 40.5 µM (inactive) | 25.6 µM (inactive) | > 100 µM (inactive) | 37.6 µM (inactive) |  | 61.8 | > 100 µM (inactive) | 41.8 µM (inactive) | 25.4 µM (inactive) |  | > 100 µM (inactive) | 63.7 µM (inactive) |  | 57.1 µM (inactive) | 56.2 µM (inactive) | 59.4 µM (inactive) |
| O=C1C2C3C=C4c5ccccc5N(c5ccccc5)C4(C2C(=O)N1c1ccccc1)C1C(=O)N(c2ccccc2)C(=O)C31 (stereo unspecified) | > 100 µM (inactive) | > 100 µM (inactive) |  |  | 35.6 µM (inactive) | > 100 | > 100 µM (inactive) | > 100 µM (inactive) | > 100 µM (inactive) | > 100 µM (inactive) |  | 8.81 µM (inactive) |  | > 100 µM (inactive) | 4.05 µM (inactive) | > 100 µM (inactive) |
| CCOC(=O)C1=C(C)N(NC(=O)Nc2ccccc2)C2(N)N(NC(=O)Nc3ccccc3)C(C)=C(C(=O)OCC)C12C(=O)OCC (stereo unspecified) | 56.4 µM (inactive) | 28.6 µM (inactive) | > 100 µM (inactive) | > 100 µM (inactive) | 1.85 µM (inactive) | > 100 | 35.9 µM (inactive) | 38.3 µM (inactive) | 61.7 µM (inactive) | 1.66 µM (inactive) | 22.1 µM (inactive) |  | 70 µM (inactive) | > 100 µM (inactive) | 37.9 µM (inactive) |  |
| O=C1c2c(c3c4ccccc4n4c3c3c2c2ccccc2n3C/C=C\C4)C(=O)N1Cc1ccccc1 | > 100 µM (inactive) | > 100 µM (inactive) | > 100 µM (inactive) | > 100 µM (inactive) | > 100 µM (inactive) | > 100 | > 100 µM (inactive) | > 100 µM (inactive) | > 100 µM (inactive) | > 100 µM (inactive) | > 100 µM (inactive) | > 100 µM (inactive) | > 100 µM (inactive) | > 100 µM (inactive) | > 100 µM (inactive) |  |
| Cc1[nH]c2ccccc2c1C1Cc2ccccc2N1C(=O)/C=C\C(=O)O (stereo unspecified) | 96.4 µM (inactive) | 31.3 µM (inactive) | 44.8 µM (inactive) |  | 30.4 µM (inactive) | > 100 |  | > 100 µM (inactive) | > 100 µM (inactive) | 29.3 µM (inactive) | 28.4 µM (inactive) | 31 µM (inactive) | 27.6 µM (inactive) | 35.6 µM (inactive) | > 100 µM (inactive) | 24.8 µM (inactive) |
| Cc1ccc(SSCCCCS(=O)O)cc1 | 19 µM (inactive) | 28.7 µM (inactive) | 18.5 µM (inactive) |  | 19.5 µM (inactive) | 17.5 | > 10 µM (inactive) | 18.5 µM (inactive) | 10.6 µM (inactive) | 11.4 µM (inactive) | 15 µM (inactive) | 5.74 µM (inactive) | 12.5 µM (inactive) | 24.3 µM (inactive) | 32.5 µM (inactive) | 18.9 µM (inactive) |
| O=C(O)C[C@H]1CCCCC12CCOC2=O (stereo partly specified) | > 100 µM (inactive) | > 100 µM (inactive) | > 100 µM (inactive) | > 100 µM (inactive) | > 100 µM (inactive) |  | > 100 µM (inactive) | > 100 µM (inactive) | > 100 µM (inactive) | > 100 µM (inactive) | > 100 µM (inactive) | > 100 µM (inactive) | > 100 µM (inactive) | > 100 µM (inactive) | > 100 µM (inactive) | > 100 µM (inactive) |
| COc1ccc(S(=O)(=O)Nc2ccccc2C(=O)O)cc1 | > 100 µM (inactive) |  | > 100 µM (inactive) | > 100 µM (inactive) | > 100 µM (inactive) | > 100 | > 100 µM (inactive) | > 100 µM (inactive) | > 100 µM (inactive) | > 100 µM (inactive) | > 100 µM (inactive) | > 100 µM (inactive) | > 100 µM (inactive) | > 100 µM (inactive) | > 100 µM (inactive) | > 100 µM (inactive) |
| Nc1nc(O)c2nc(N)n(Cc3ccccc3)c2n1 | > 100 µM (inactive) | > 100 µM (inactive) | > 100 µM (inactive) | > 100 µM (inactive) | > 100 µM (inactive) | > 100 | > 100 µM (inactive) | > 100 µM (inactive) | > 100 µM (inactive) | > 100 µM (inactive) |  | > 100 µM (inactive) | > 100 µM (inactive) | > 100 µM (inactive) | > 100 µM (inactive) | > 100 µM (inactive) |
| CC(=O)OCC(=O)[C@@]12OC(C)(C)O[C@@H]1C[C@H]1[C@@H]3CC(C=O)=C4C=C(OCCCl)CC[C@]4(C)[C@@]3(F)[C@@H](O)C[C@@]12C [FORMOCORTAL] | > 100 µM (inactive) | 24.8 µM (inactive) | 10.3 µM (inactive) | 2.58 µM (inactive) | 18 µM (inactive) | 11.6 | 12.9 µM (inactive) | 24.5 µM (inactive) | 32.2 µM (inactive) | 13.3 µM (inactive) | 17.6 µM (inactive) | 0.486 µM (active) | 20.3 µM (inactive) | 4.74 µM (inactive) | 14.1 µM (inactive) |  |
